Test results: ChEMBL document CHEMBL5241127, “Design, synthesis and biological evaluation of novel 9-N-substituted-13-alkylberberine derivatives from Chinese medicine as anti-hepatocellular carcinoma agents” (Bioorg Med Chem, 2023)

Columns and labels:
DNA = assay: Binding affinity to duplex DNA (unknown origin) using fluorescent tagged F10T model assessed as stabilization by measuring change in melting temperature at 2 uM by fluorescence based analysis; assay type: nucleic-acid assay
HepG2 = assay: Antiproliferative activity against human HepG2 cells assessed as inhibition of cell growth incubated for 72 hrs by MTT assay; assay type: functional, cell-based; conditions: HepG2, 72 h
Quadruplex DNA [1] = assay: Binding affinity to c-MYC G4-quadruplex DNA (unknown origin) using fluorescent tagged FPu18T model assessed as stabilization by measuring change in melting temperature at 2 uM by fluorescence based analysis; assay type: nucleic-acid assay
Quadruplex DNA [2] = assay: Binding affinity to c-MYC G4-quadruplex DNA (unknown origin) using fluorescent tagged FPu18T model assessed as stabilization by measuring change in melting temperature at 2 uM incubated in presence of non-fluorescent ds26 DNA by fluorescence based analysis; assay type: nucleic-acid assay
H22 = assay: Antitumor activity against […] xenografted in ICR mouse assessed as inhibition of tumor growth at 20 mg/kg, iv administered for 21 days and measured every 2 days relative to control; assay type: functional; conditions: H22, 504 h, time 21 day, read-out: TGI

| Compound | ΔTm (DNA) [°C] | IC50 (HepG2) [nM] | ΔTm (Quadruplex DNA [1]) [°C] | ΔTm (Quadruplex DNA [2]) [°C] | inhibition in vivo at 20 mg/kg (H22) [%] |
| --- | --- | --- | --- | --- | --- |
| CCCCCCCCc1c2[n+](cc3c(NCCN)c(OC)ccc13)CCc1cc3c(cc1-2)OCO3 |  | 8610 |  |  |  |
| CCCCCCCCc1c2[n+](cc3c(NCCCN)c(OC)ccc13)CCc1cc3c(cc1-2)OCO3 |  | 7180 |  |  |  |
| CCCCCCCCc1c2[n+](cc3c(NCCO)c(OC)ccc13)CCc1cc3c(cc1-2)OCO3 |  | 2760 |  |  |  |
| O=P1(N(CCCl)CCCl)NCCCO1 (centres undefined) [CYCLOPHOSPHAMIDE ANHYDROUS] |  |  |  |  | 64.6 |
| CCCCCCCCc1c2[n+](cc3c(NCCCCN)c(OC)ccc13)CCc1cc3c(cc1-2)OCO3 |  | 5170 |  |  |  |

Continued, in another order:

| ΔTm (DNA) [°C] | IC50 (HepG2) [nM] | ΔTm (Quadruplex DNA [1]) [°C] | ΔTm (Quadruplex DNA [2]) [°C] | Compound | inhibition in vivo at 20 mg/kg (H22) [%] |
| --- | --- | --- | --- | --- | --- |
| 0.4 | 1010 | 21.8 | 21.1 | CCCCCCCCc1c2[n+](c3c4c(c(OC)ccc14)N(CCN(C)C)C=C3)CCc1cc3c(cc1-2)OCO3 |  |
| 1.8 | 1370 | 23.1 | 19.3 | CCCCCCCCc1c2[n+](cc3c(NCCCN4CCCC4)c(OC)ccc13)CCc1cc3c(cc1-2)OCO3 |  |
|  | 2030 |  |  | CCCCCCCCCCc1c2[n+](cc3c(NCCO)c(OC)ccc13)CCc1cc3c(cc1-2)OCO3 |  |
